Patent publication US20230225990A1, “DIMETHYL SULFONE FOR TREATMENT OF CHRONICALLY HEAT STRESSED POULTRY” (Evonik Operations GmbH, priority 2020, published 2023)
Marks after values point to notes of the source that are not given here.

Legend:
[1] = tested on: male broilers subjected to chronic cyclic heat stress; assay: Carcass yield and portions on d-40; type: in vivo, broiler chickens (Ross 308); conditions: d-40 after overnight fasting
Description: Sampling of two birds per pen (with weight close to average weight of the pen) on d-40 after overnight fasting (no heat stress that day) • Carcass yield, breast percentage, thigh percentage, drumstick percentage and abdominal fat • Carcass yield: with skin, bled, without internal organs, without feet, without head, without neck, without abdominal fat; relative to bird body weight • Breast percentage: skinless, boneless; relative to bird body weight • Thigh percentage: with skin, with bone; relative to bird body weight • Drumstick percentage: with skin, with bone; relative to bird body weight • Abdominal fat percentage: abdominal fat; relative to bird body weight • Breast meat quality • Scoring of breast myopathies (wooden breast and white striping) • Wooden breast: normal, 0; mild, 1 and severe, 2 • White striations: normal, 0; mild, 1, and severe, 2 • pH and colour, both at time 0 h and 24 h (after sampling at time 0 h, breasts are stored at 4° C. until 24 h) • Drip loss, determined for periods 0-24 h and for period 0-72 h (after sampling at time 0 h, breasts are stored at 4° C. until 72 h, and weight without exuded water at 24 h and 72 h) • Press loss, determined at 24 h (after sampling at time 0 h, breasts are stored at 4° C. until 24 h, prior to determine press loss) • Oxidative stability (TBARS after simulated retail display)

[2] = tested on: male broilers subjected to chronic cyclic heat stress; assay: Parameters in blood of birds sampled at d-23, d-25 and d-39; type: in vivo, broiler chickens (Ross 308); conditions: for GSSG/GSH / Glutathione (GSH) / Oxidized glutathione (GSSG): erythrocytes; for Glutathione peroxidase / Heat shock protein 70 / Malondialdehyde / Super oxide dismutase: plasma; for Nitric oxide / T3 (triiodothyronine) / T3/T4 / T4 (thyroxine): serum
Protocol: Sampling of one bird per pen (with weight close to average weight of the pen) on d-23, d-25 and on d-39 (on d-25 and d-39, sampling starts after >3 h of heat stress that day; 108 birds in total) • malondialdehyde, HSP70 (Chicken Heat Shock Protein 70, Hsp-70 ELISA Kit) Cusabio Code CSB-E11196Ch), HSP90 (Chicken Heat Shock Protein 90, HSP-90 ELISA Kit; Cusabio Code CSB-E12873C), GPx, SOD in plasma; GSH/GSSG in erythrocytes; and T3, T4 and nitric oxide in serum • Breast muscle and liver: malondialdehyde, AOX (GPx, SOD), GSH/GSSG
For physiological measurements, time of sampling (representing the number of minutes between the beginning of heat stress and the precise moment of sampling of the bird that day), if appropriate, was included in the model as a covariable if significant as well. Orthogonal contrasts were applied to test for linear and quadratic effects upon incremental levels of DMS supplementation in the diet. Means are given as estimated marginal means (least square means). Means were separated using the Tukey post-hoc test. Differences were considered significant when p<0.05 and as a trend for significance when p<0.1.
Heat shock protein 70 and heat shock protein 90 were determined in plasma employing the competitive inhibition enzyme immunoassay technique (HSP70, Chicken Heat Shock Protein 70, Hsp-70 ELISA Kit; Cusabio Code CSB-E11196Ch) and the quantitative sandwich enzyme immunoassay technique (HSP90, Chicken Heat Shock Protein 90, HSP-90 ELISA Kit; Cusabio Code CSB-E12873C), respectively. Regarding HSP-90 very low absorbances were found and in most cases fell below the lowest standard dilution. Values were then typically less than 0.39 ng/mL, the minimum detectable dose as mentioned in the user manual. For that reason, no data for HSP-90 could be reported here. Opposite to that, HSP-70 worked properly and values were all above sensitivity of 0.125 ng/mL. No treatments effects on HSP-70 could be perceived on either sampling day, apart from a trend for linear reduction on d-23. […] It must be noted that large variation across samples was found on d-39. Thyroxine (T4) could not be detected on d-23, while higher values were found on d-25 and d-39. A trend for linear increase on d-39 by higher DMS dose was observed. […] It means that conversion efficiency was not altered by diet. Irrespective of treatment is the sharp reduction in circulating T3 levels as birds age and thus subjected for long period to heat stress. As indicated above, this can be regarded as an adaptation to reduce body metabolism and hitherto metabolic heat production, and apparently birds fed DMS seems to be less affected. Nitric oxide was not different across treatments at any sampling day. Further, interesting changes in malondialdehyde, a marker of lipid peroxidation, were found. […] The higher GSH in DMS-fed chickens thus promotes antioxidant function and redox homeostasis. However, no relation could be established between plasma malondialdehyde and erythrocyte glutathione (FIG. 17).

Q: Which results are given for `CS(C)(=O)=O` [DMS, dimethyl sulfone]?
A: Body weight ([1]; 0.1% DMS in diet (T2)): 3010 g; Body weight ([1]; 0.2% DMS in diet (T3)): 2980 g; GSSG/GSH ([2]; 0.1% DMS in diet (T2), d-23): 0.015; Glutathione (GSH) ([2]; 0.1% DMS in diet (T2), d-23): 1.07 µmol/mL; Oxidized glutathione (GSSG) ([2]; 0.1% DMS in diet (T2), d-23): 0.017 µmol/mL; GSSG/GSH ([2]; 0.1% DMS in diet (T2), d-25): 0.017^a; Glutathione (GSH) ([2]; 0.1% DMS in diet (T2), d-25): 0.59 µmol/mL; Oxidized glutathione (GSSG) ([2]; 0.1% DMS in diet (T2), d-25): 0.010 µmol/mL; GSSG/GSH ([2]; 0.1% DMS in diet (T2), d-39): 0.017; Glutathione (GSH) ([2]; 0.1% DMS in diet (T2), d-39): 0.64^ab μmol/mL; Oxidized glutathione (GSSG) ([2]; 0.1% DMS in diet (T2), d-39): 0.011 µmol/mL; Glutathione peroxidase ([2]; 0.1% DMS in diet (T2), d-23): 0.82 U/mL; Heat shock protein 70 ([2]; 0.1% DMS in diet (T2), d-23): 1.69 ng/mL; Malondialdehyde ([2]; 0.1% DMS in diet (T2), d-23): 14.4 nmol/mL; Super oxide dismutase ([2]; 0.1% DMS in diet (T2), d-23): 84.1 % inhibition; Glutathione peroxidase ([2]; 0.1% DMS in diet (T2), d-25): 0.84 U/mL; Heat shock protein 70 ([2]; 0.1% DMS in diet (T2), d-25): 1.07 ng/mL; Malondialdehyde ([2]; 0.1% DMS in diet (T2), d-25): 14.3 nmol/mL; Super oxide dismutase ([2]; 0.1% DMS in diet (T2), d-25): 81.3 % inhibition; Glutathione peroxidase ([2]; 0.1% DMS in diet (T2), d-39): 0.97 U/mL; Heat shock protein 70 ([2]; 0.1% DMS in diet (T2), d-39): 2.77 ng/mL; Malondialdehyde ([2]; 0.1% DMS in diet (T2), d-39): 15.7 nmol/mL; Super oxide dismutase ([2]; 0.1% DMS in diet (T2), d-39): 79.5 % inhibition; Nitric oxide ([2]; 0.1% DMS in diet (T2), d-23): 6.02 µmol/L; T3 (triiodothyronine) ([2]; 0.1% DMS in diet (T2), d-23): 2.43^a μg/L; Nitric oxide ([2]; 0.1% DMS in diet (T2), d-25): 4.31 µmol/L; T3 (triiodothyronine) ([2]; 0.1% DMS in diet (T2), d-25): 1.74 µg/L; T3/T4 ([2]; 0.1% DMS in diet (T2), d-25): 0.342; T4 (thyroxine) ([2]; 0.1% DMS in diet (T2), d-25): 0.53 µg/dL; Nitric oxide ([2]; 0.1% DMS in diet (T2), d-39): 3.84 µmol/L; T3 (triiodothyronine) ([2]; 0.1% DMS in diet (T2), d-39): 1.10 µg/L; T3/T4 ([2]; 0.1% DMS in diet (T2), d-39): 0.193; T4 (thyroxine) ([2]; 0.1% DMS in diet (T2), d-39): 0.60 µg/dL; GSSG/GSH ([2]; 0.2% DMS in diet (T3), d-23): 0.018; Glutathione (GSH) ([2]; 0.2% DMS in diet (T3), d-23): 1.25 µmol/mL; Oxidized glutathione (GSSG) ([2]; 0.2% DMS in diet (T3), d-23): 0.023 µmol/mL; GSSG/GSH ([2]; 0.2% DMS in diet (T3), d-25): 0.013^b; Glutathione (GSH) ([2]; 0.2% DMS in diet (T3), d-25): 0.70 µmol/mL; Oxidized glutathione (GSSG) ([2]; 0.2% DMS in diet (T3), d-25): 0.009 µmol/mL; GSSG/GSH ([2]; 0.2% DMS in diet (T3), d-39): 0.015; Glutathione (GSH) ([2]; 0.2% DMS in diet (T3), d-39): 0.67^a μmol/mL; Oxidized glutathione (GSSG) ([2]; 0.2% DMS in diet (T3), d-39): 0.010 µmol/mL; Glutathione peroxidase ([2]; 0.2% DMS in diet (T3), d-23): 0.92 U/mL; Heat shock protein 70 ([2]; 0.2% DMS in diet (T3), d-23): 1.00 ng/mL; Malondialdehyde ([2]; 0.2% DMS in diet (T3), d-23): 14.2 nmol/mL; Super oxide dismutase ([2]; 0.2% DMS in diet (T3), d-23): 80.4 % inhibition; Glutathione peroxidase ([2]; 0.2% DMS in diet (T3), d-25): 0.86 U/mL; Heat shock protein 70 ([2]; 0.2% DMS in diet (T3), d-25): 1.08 ng/mL; Malondialdehyde ([2]; 0.2% DMS in diet (T3), d-25): 13.2 nmol/mL; Super oxide dismutase ([2]; 0.2% DMS in diet (T3), d-25): 84.1 % inhibition; Glutathione peroxidase ([2]; 0.2% DMS in diet (T3), d-39): 1.09 U/mL; Heat shock protein 70 ([2]; 0.2% DMS in diet (T3), d-39): 4.23 ng/mL; Malondialdehyde ([2]; 0.2% DMS in diet (T3), d-39): 14.9 nmol/mL; Super oxide dismutase ([2]; 0.2% DMS in diet (T3), d-39): 87.1 % inhibition; Nitric oxide ([2]; 0.2% DMS in diet (T3), d-23): 6.06 µmol/L; T3 (triiodothyronine) ([2]; 0.2% DMS in diet (T3), d-23): 2.06^b μg/L; Nitric oxide ([2]; 0.2% DMS in diet (T3), d-25): 4.48 µmol/L; T3 (triiodothyronine) ([2]; 0.2% DMS in diet (T3), d-25): 1.72 µg/L; T3/T4 ([2]; 0.2% DMS in diet (T3), d-25): 0.351; T4 (thyroxine) ([2]; 0.2% DMS in diet (T3), d-25): 0.50 µg/dL; Nitric oxide ([2]; 0.2% DMS in diet (T3), d-39): 3.14 µmol/L; T3 (triiodothyronine) ([2]; 0.2% DMS in diet (T3), d-39): 1.12 µg/L; T3/T4 ([2]; 0.2% DMS in diet (T3), d-39): 0.180; T4 (thyroxine) ([2]; 0.2% DMS in diet (T3), d-39): 0.63 µg/dL
